Experimental findings from US20240246977A1, “DEGRADATION OF BRUTON'S TYROSINE KINASE (BTK) BY CONJUGATION OF BTK INHIBITORS WITH E3 LIGASE LIGAND AND METHOD OF USE” (BeiGene Switzerland GmbH, priority 2021, published 2024) are described below.

The test system of one assay is HEK-293 cells. As to the kind of experiment: HEK-293 cytotoxicity detection (CellTiter-Glo). The class given is cell-based. The settings on record: Homo sapiens, 72 h, 72 h incubation, CellTiter-Glo luminescence, read-out: HEK293. The method in brief: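 HEK-293 cells exposed 72 h to 8 compounds doses (4-fold dilutions, top stock 5 mM at 500×) in 0.2% DMSO. Viability by CellTiter-Glo luminescence; inhibition normalised to DMSO high control and low control, IC50 from four-parameter curve fit.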

For the next assay, the target named is BTK (Homo sapiens, UniProt Q06187). As to the kind of experiment: BTK cell degradation in TMD-8 cells, HTRF assay. The assay is classed as cell-based. The arrangement: endogenous in cells; host or cells: TMD-8 cells. The settings on record: 6 h treatment, IC50 (DC50) of BTK degradation. Put shortly:
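BTK levels read by HTRF in lysates of TMD-8 cells exposed to compounds for 6 h, eight concentrations at 6-fold steps in 0.2% DMSO. Percent degradation versus DMSO and low controls was fitted with a four-parameter equation to give DC50; Dmax is maximal degradation.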
For orientation: Time-resolved FRET reads energy transfer from a long-lived donor to a nearby acceptor.

Sequence of BTK (Q06187 whole entry): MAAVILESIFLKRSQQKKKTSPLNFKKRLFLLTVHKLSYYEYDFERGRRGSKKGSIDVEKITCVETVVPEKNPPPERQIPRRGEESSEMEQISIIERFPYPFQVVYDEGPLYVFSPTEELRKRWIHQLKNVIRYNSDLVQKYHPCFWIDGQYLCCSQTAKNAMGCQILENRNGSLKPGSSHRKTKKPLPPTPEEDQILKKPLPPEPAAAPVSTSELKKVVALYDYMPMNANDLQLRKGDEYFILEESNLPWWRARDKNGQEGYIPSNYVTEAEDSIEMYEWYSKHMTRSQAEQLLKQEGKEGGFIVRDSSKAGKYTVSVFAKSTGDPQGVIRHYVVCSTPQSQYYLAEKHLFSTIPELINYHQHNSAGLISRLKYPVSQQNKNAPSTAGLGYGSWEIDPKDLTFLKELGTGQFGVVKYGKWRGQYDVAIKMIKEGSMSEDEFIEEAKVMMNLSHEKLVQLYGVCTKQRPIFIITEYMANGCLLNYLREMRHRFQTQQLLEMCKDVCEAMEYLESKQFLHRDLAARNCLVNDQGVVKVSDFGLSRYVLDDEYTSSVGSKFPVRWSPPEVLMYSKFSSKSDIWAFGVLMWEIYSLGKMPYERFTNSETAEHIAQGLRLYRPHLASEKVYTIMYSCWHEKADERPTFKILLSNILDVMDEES

As usually defined, the DC50 is the concentration giving 50% degradation. The low end stands for a more potent degrader, the high end for a less potent degrader. For `CCc1cccc(NC(=O)c2ccc(-c3nn4c(c3C(N)=O)Nc3ccc(N5CCN(CC6CCN(c7ccc(N8CCC(=O)NC8=O)cc7)CC6)CC5)cc3CC4)c(F)c2C)n1` [Example B41, 7-(4-((1-(4-(2,4-dioxotetrahydropyrimidin-1(2H)-yl)phenyl)piperidin-4-yl)methyl)piperazin-1-yl)-2-(4-((6-ethylpyridin-2-yl)carbamoyl)-2-fluoro-3-methylphenyl)-9,10-dihydro-4H-benzo[d]pyrazolo[1,5-a][1,3]diazepine-3-carboxamide], in the assay on HEK-293 cells, the IC50 is over 10000 nM. Moreover, half-maximal degradation on BTK (DC50) was put at 9.26 nM.

For `Cc1cc(Cl)cc(NC(=O)c2ccc(-c3nn4c(c3C(N)=O)Nc3ccc(N5CCN(CC6CCN(c7ccc(N8CCC(=O)NC8=O)cc7)CC6)CC5)cc3CC4)c(F)c2C)n1` [Example B42, 2-(4-((4-chloro-6-methylpyridin-2-yl)carbamoyl)-2-fluoro-3-methylphenyl)-7-(4-((1-(4-(2,4-dioxotetrahydropyrimidin-1(2H)-yl)phenyl)piperidin-4-yl)methyl)piperazin-1-yl)-9,10-dihydro-4H-benzo[d]pyrazolo[1,5-a][1,3]diazepine-3-carboxamide], the IC50 with HEK-293 cells was over 10000 nM. Moreover, at BTK, half-maximal degradation (DC50) was put at 3.67 nM.

For the compound `Cc1ccnc(NC(=O)c2ccc(-c3nn4c(c3C(N)=O)Nc3ccc(N5CCN(CC6CCN(c7ccc(N8CCC(=O)NC8=O)cc7)CC6)CC5)cc3CC4)c(F)c2C)n1` [Example B43, 7-(4-((1-(4-(2,4-dioxotetrahydropyrimidin-1(2H)-yl)phenyl)piperidin-4-yl)methyl)piperazin-1-yl)-2-(2-fluoro-3-methyl-4-((4-methylpyrimidin-2-yl)carbamoyl)phenyl)-9,10-dihydro-4H-benzo[d]pyrazolo[1,5-a][1,3]diazepine-3-carboxamide], the IC50 with HEK-293 cells is over 10000 nM. On BTK, the DC50 came to 0.543 nM.

Turning to `Cc1c(C(=O)Nc2ccc3[nH]ccc3n2)ccc(-c2nn3c(c2C(N)=O)Nc2ccc(N4CCN(CC5CCN(c6ccc(N7CCC(=O)NC7=O)cc6)CC5)CC4)cc2CC3)c1F` [Example B45, 2-(4-((1H-pyrrolo[3,2-b]pyridin-5-yl)carbamoyl)-2-fluoro-3-methylphenyl)-7-(4-((1-(4-(2,4-dioxotetrahydropyrimidin-1(2H)-yl)phenyl)piperidin-4-yl)methyl)piperazin-1-yl)-9,10-dihydro-4H-benzo[d]pyrazolo[1,5-a][1,3]diazepine-3-carboxamide], the IC50 in the assay with HEK-293 cells is over 10000 nM. On BTK, this compound came in with a DC50 of 1.69 nM.

For `Cc1c(-c2nc(-c3ccccn3)no2)ccc(-c2nn3c(c2C(N)=O)Nc2ccc(N4CCN(CC5CCN(c6ccc(N7CCC(=O)NC7=O)cc6)CC5)CC4)cc2CC3)c1F` [Example B46, 7-(4-((1-(4-(2,4-dioxotetrahydropyrimidin-1(2H)-yl)phenyl)piperidin-4-yl)methyl)piperazin-1-yl)-2-(2-fluoro-3-methyl-4-(3-(pyridin-2-yl)-1,2,4-oxadiazol-5-yl)phenyl)-9,10-dihydro-4H-benzo[d]pyrazolo[1,5-a][1,3]diazepine-3-carboxamide], in the assay on HEK-293 cells, the IC50 is over 10000 nM. This compound registered a DC50 at BTK of 15 nM.

Consider `Cc1c(C(=O)Nc2cnc3ccccc3n2)ccc(-c2nn3c(c2C(N)=O)Nc2ccc(N4CCN(CC5CCN(c6ccc(N7CCC(=O)NC7=O)cc6)CC5)CC4)cc2CC3)c1F` [Example B47, 7-(4-((1-(4-(2,4-dioxotetrahydropyrimidin-1(2H)-yl)phenyl)piperidin-4-yl)methyl)piperazin-1-yl)-2-(2-fluoro-3-methyl-4-(quinoxalin-2-ylcarbamoyl)phenyl)-9,10-dihydro-4H-benzo[d]pyrazolo[1,5-a][1,3]diazepine-3-carboxamide], for which the IC50 in the assay on HEK-293 cells is over 10000 nM. The compound further returned a DC50 at BTK of 1.9 nM.

In the case of `Cc1c(C(=O)Nc2cccc(-c3ccccc3)n2)ccc(-c2nn3c(c2C(N)=O)Nc2ccc(N4CCN(CC5CCN(c6ccc(N7CCC(=O)NC7=O)cc6)CC5)CC4)cc2CC3)c1F` [Example B48, 7-(4-((1-(4-(2,4-dioxotetrahydropyrimidin-1(2H)-yl)phenyl)piperidin-4-yl)methyl)piperazin-1-yl)-2-(2-fluoro-3-methyl-4-((6-phenylpyridin-2-yl)carbamoyl)phenyl)-9,10-dihydro-4H-benzo[d]pyrazolo[1,5-a][1,3]diazepine-3-carboxamide], the IC50 with HEK-293 cells was over 10000 nM. The same compound yielded a DC50 on BTK of 4.2 nM.

Turning to `Cc1c(C(=O)Nc2cc(N3CCCC3)ccn2)ccc(-c2nn3c(c2C(N)=O)Nc2ccc(N4CCN(CC5CCN(c6ccc(N7CCC(=O)NC7=O)cc6)CC5)CC4)cc2CC3)c1F` [Example B49, 7-(4-((1-(4-(2,4-dioxotetrahydropyrimidin-1(2H)-yl)phenyl)piperidin-4-yl)methyl)piperazin-1-yl)-2-(2-fluoro-3-methyl-4-((4-(pyrrolidin-1-yl)pyridin-2-yl)carbamoyl)phenyl)-9,10-dihydro-4H-benzo[d]pyrazolo[1,5-a][1,3]diazepine-3-carboxamide], in the assay on HEK-293 cells, the IC50 was over 10000 nM. On BTK, it took 13.5 nM to reach half-maximal degradation (DC50).

Regarding `COc1ccnc(NC(=O)c2ccc(-c3nn4c(c3C(N)=O)Nc3ccc(N5CCN(CC6CCN(c7ccc(N8CCC(=O)NC8=O)cc7)CC6)CC5)cc3CC4)c(F)c2C)c1` [Example B50, 7-(4-((1-(4-(2,4-dioxotetrahydropyrimidin-1(2H)-yl)phenyl)piperidin-4-yl)methyl)piperazin-1-yl)-2-(2-fluoro-4-((4-methoxypyridin-2-yl)carbamoyl)-3-methylphenyl)-9,10-dihydro-4H-benzo[d]pyrazolo[1,5-a][1,3]diazepine-3-carboxamide], the IC50 in the assay on HEK-293 cells is over 10000 nM. At BTK, this compound displayed a DC50 of 2.16 nM.

`CCOc1ccnc(NC(=O)c2ccc(-c3nn4c(c3C(N)=O)Nc3ccc(N5CCN(CC6CCN(c7ccc(N8CCC(=O)NC8=O)cc7)CC6)CC5)cc3CC4)c(F)c2C)c1` [Example B51, 7-(4-((1-(4-(2,4-dioxotetrahydropyrimidin-1(2H)-yl)phenyl)piperidin-4-yl)methyl)piperazin-1-yl)-2-(4-((4-ethoxypyridin-2-yl)carbamoyl)-2-fluoro-3-methylphenyl)-9,10-dihydro-4H-benzo[d]pyrazolo[1,5-a][1,3]diazepine-3-carboxamide]: the IC50 in the assay with HEK-293 cells was determined as 290 nM. Moreover, half-maximal degradation at BTK (DC50) was put at 7.39 nM.

Take `Cc1nc(NC(=O)c2ccc(-c3nn4c(c3C(N)=O)Nc3ccc(N5CCN(CC6CCN(c7ccc(N8CCC(=O)NC8=O)cc7)CC6)CC5)nc3CC4)c(F)c2C)ccc1Cl` [Example B52, 2-(4-((5-chloro-6-methylpyridin-2-yl)carbamoyl)-2-fluoro-3-methylphenyl)-7-(4-((1-(4-(2,4-dioxotetrahydropyrimidin-1(2H)-yl)phenyl)piperidin-4-yl)methyl)piperazin-1-yl)-9,10-dihydro-4H-pyrazolo[1,5-a]pyrido[3,2-d][1,3]diazepine-3-carboxamide]: the IC50 with HEK-293 cells was over 10000 nM. Moreover, it took 4.06 nM to reach half-maximal degradation on BTK (DC50).

Consider `Cc1nc(NC(=O)c2ccc(-c3nn4c(c3C(N)=O)Nc3ccc(N5CCN(CC6CN(c7ccc(N8CCC(=O)NC8=O)cc7)C6)CC5)cc3CC4)c(F)c2C)ccc1Cl` [Example B53, 2-(4-((5-chloro-6-methylpyridin-2-yl)carbamoyl)-2-fluoro-3-methylphenyl)-7-(4-((1-(4-(2,4-dioxotetrahydropyrimidin-1(2H)-yl)phenyl)azetidin-3-yl)methyl)piperazin-1-yl)-9,10-dihydro-4H-benzo[d]pyrazolo[1,5-a][1,3]diazepine-3-carboxamide], for which the IC50 in the assay on HEK-293 cells is over 10000 nM. Further, the DC50 at BTK was 18.6 nM.

Turning to `Cc1cccc(NC(=O)c2ccc(-c3nn4c(c3C(N)=O)Nc3ccc(N5CCN(CC6CCN(c7ccc(N8CCC(=O)NC8=O)c(C)c7)CC6)CC5)cc3CC4)c(F)c2C)n1` [Example B54, 7-(4-((1-(4-(2,4-dioxotetrahydropyrimidin-1(2H)-yl)-3-methylphenyl)piperidin-4-yl)methyl)piperazin-1-yl)-2-(2-fluoro-3-methyl-4-((6-methylpyridin-2-yl)carbamoyl)phenyl)-9,10-dihydro-4H-benzo[d]pyrazolo[1,5-a][1,3]diazepine-3-carboxamide], the IC50 in the assay on HEK-293 cells is over 10000 nM. The DC50 at BTK worked out at 3.75 nM.

In the case of `Cc1cccc(NC(=O)c2ccc(-c3nn4c(c3C(N)=O)Nc3ccc(N5CCN(CC6CCN(c7cc8c(cc7F)C(=O)N(C7CCC(=O)NC7=O)C8=O)CC6)CC5)cc3CC4)c(F)c2C)n1` (stereo not drawn) [Example B55, 7-(4-((1-(2-(2,6-dioxopiperidin-3-yl)-6-fluoro-1,3-dioxoisoindolin-5-yl)piperidin-4-yl)methyl)piperazin-1-yl)-2-(2-fluoro-3-methyl-4-((6-methylpyridin-2-yl)carbamoyl)phenyl)-9,10-dihydro-4H-benzo[d]pyrazolo[1,5-a][1,3]diazepine-3-carboxamide], in the assay on HEK-293 cells, the IC50 is over 10000 nM. This compound also displayed a DC50 at BTK of 2.42 nM.

Consider `Cc1cccc(NC(=O)c2ccc(-c3nn4c(c3C(N)=O)Nc3ccc(N5CCN(CC6CCN(c7cc8c(cc7F)CN(C7CCC(=O)NC7=O)C8=O)CC6)CC5)cc3CC4)c(F)c2C)n1` (stereo not drawn) [Example B56, 7-(4-((1-(2-(2,6-dioxopiperidin-3-yl)-6-fluoro-3-oxoisoindolin-5-yl)piperidin-4-yl)methyl)piperazin-1-yl)-2-(2-fluoro-3-methyl-4-((6-methylpyridin-2-yl)carbamoyl)phenyl)-9,10-dihydro-4H-benzo[d]pyrazolo[1,5-a][1,3]diazepine-3-carboxamide], for which the IC50 in the assay on HEK-293 cells is over 10000 nM. The compound also gave a DC50 at BTK of 4.31 nM.
